Assay [1] concerns the target T1, Protein kinase C iota type (Homo sapiens) (UniProt P41743).
T1 sequence (whole entry): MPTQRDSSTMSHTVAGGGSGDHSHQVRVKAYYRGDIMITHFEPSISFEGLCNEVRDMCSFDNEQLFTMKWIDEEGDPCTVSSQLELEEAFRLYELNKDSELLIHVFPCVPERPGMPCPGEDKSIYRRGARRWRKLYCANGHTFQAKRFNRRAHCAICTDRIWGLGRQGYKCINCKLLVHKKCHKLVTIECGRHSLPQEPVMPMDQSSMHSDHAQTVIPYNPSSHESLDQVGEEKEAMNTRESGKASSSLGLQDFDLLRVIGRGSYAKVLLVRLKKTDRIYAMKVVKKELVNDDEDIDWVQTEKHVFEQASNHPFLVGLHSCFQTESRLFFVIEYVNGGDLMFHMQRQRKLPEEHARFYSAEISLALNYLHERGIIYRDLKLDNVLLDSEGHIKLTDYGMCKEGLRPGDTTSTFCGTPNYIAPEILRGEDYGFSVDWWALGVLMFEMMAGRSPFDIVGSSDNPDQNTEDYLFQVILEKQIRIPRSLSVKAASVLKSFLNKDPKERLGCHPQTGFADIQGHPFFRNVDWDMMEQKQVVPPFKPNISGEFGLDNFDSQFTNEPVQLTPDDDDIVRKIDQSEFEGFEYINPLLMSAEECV
Nature of the assay: Inhibition of human PKCiota at 500 nM by HotSpot assay relative to control.

The target in assay [2] is High affinity nerve growth factor receptor (Homo sapiens) (UniProt P04629). Nature of the assay: Inhibition of human TRKA at 500 nM by HotSpot assay relative to control.
Chain of High affinity nerve growth factor receptor (Homo sapiens) (P04629 33-796 limits assumed): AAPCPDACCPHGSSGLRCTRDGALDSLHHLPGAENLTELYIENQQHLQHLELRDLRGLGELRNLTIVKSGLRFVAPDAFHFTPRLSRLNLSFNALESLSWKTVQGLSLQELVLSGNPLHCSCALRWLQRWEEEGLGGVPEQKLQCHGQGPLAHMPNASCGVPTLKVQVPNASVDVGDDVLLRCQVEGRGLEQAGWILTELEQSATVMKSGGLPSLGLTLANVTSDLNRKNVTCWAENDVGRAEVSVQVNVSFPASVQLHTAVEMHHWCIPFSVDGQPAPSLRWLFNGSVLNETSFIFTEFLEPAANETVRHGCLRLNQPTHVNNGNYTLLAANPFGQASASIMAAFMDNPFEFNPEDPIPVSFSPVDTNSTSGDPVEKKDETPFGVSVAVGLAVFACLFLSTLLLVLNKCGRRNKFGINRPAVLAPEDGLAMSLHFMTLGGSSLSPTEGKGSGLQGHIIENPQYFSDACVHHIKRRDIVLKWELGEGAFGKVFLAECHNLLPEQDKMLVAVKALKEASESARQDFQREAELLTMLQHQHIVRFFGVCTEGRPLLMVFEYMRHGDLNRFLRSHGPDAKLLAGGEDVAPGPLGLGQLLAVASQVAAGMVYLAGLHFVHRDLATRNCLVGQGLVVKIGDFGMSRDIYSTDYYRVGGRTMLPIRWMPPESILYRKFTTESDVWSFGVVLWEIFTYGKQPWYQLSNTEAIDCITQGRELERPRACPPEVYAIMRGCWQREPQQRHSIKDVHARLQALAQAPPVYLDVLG
Assay [3] deals with T2, Aurora kinase C (Homo sapiens) (UniProt Q9UQB9).
T2 sequence (whole entry): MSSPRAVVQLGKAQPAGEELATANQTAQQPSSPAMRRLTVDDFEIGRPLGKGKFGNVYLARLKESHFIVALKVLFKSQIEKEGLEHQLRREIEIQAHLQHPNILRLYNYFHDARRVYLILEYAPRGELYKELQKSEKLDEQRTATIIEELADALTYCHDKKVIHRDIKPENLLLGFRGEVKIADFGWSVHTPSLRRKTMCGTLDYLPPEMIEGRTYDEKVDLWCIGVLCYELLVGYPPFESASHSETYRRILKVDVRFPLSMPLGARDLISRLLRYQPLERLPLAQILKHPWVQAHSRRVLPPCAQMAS
Nature of the assay: Inhibition of human Aurora C at 500 nM by HotSpot assay relative to control.

The target in assay [4] is T3, NUAK family SNF1-like kinase 2 (Homo sapiens) (UniProt Q9H093).
T3 sequence (whole entry): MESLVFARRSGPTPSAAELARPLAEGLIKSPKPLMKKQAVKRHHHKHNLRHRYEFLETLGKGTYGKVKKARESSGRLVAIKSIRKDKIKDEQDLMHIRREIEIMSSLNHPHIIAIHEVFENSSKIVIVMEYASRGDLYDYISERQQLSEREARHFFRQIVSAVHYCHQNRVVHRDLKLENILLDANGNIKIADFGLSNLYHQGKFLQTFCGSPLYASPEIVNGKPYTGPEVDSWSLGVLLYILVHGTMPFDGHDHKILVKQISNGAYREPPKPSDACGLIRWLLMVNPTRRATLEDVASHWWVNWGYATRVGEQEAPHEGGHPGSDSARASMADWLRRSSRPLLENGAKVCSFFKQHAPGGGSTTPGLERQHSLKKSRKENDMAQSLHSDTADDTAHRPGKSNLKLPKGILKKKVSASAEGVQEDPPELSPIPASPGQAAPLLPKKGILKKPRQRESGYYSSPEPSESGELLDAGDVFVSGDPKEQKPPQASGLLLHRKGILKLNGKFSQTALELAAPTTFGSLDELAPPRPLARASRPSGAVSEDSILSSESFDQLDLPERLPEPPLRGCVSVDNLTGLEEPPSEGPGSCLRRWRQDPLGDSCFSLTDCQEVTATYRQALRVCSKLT
Nature of the assay: Inhibition of human NUAK2 at 500 nM by HotSpot assay relative to control.

In assay [5] the target is T4, Serine/threonine-protein kinase D3 (Homo sapiens) (UniProt O94806).
T4 sequence (whole entry): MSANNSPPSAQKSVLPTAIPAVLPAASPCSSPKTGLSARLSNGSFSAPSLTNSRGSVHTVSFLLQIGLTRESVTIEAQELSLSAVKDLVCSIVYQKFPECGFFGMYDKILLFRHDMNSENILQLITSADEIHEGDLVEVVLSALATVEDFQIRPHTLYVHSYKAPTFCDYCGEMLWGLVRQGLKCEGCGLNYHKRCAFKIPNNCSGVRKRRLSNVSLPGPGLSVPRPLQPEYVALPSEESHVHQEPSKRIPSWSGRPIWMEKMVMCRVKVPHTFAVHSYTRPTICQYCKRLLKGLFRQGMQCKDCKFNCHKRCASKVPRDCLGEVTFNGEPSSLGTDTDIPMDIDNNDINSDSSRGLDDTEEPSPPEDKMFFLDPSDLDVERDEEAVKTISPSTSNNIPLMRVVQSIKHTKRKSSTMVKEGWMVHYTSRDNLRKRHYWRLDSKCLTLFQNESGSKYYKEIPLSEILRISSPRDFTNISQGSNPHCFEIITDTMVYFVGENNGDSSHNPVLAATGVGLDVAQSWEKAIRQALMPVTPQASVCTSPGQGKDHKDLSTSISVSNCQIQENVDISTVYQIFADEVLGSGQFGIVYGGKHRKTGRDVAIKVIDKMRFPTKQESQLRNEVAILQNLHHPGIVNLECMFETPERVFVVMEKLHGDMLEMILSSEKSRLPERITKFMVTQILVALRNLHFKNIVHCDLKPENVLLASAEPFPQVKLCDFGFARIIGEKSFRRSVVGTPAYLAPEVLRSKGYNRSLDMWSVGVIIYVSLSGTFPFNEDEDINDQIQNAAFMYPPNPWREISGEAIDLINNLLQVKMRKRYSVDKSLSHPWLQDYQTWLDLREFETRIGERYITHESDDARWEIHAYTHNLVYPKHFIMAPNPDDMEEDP
Nature of the assay: Inhibition of human PRKD3 at 500 nM by HotSpot assay relative to control.

For assay [6], the target named is T5, Serine/threonine-protein kinase Sgk1 (Homo sapiens) (UniProt O00141).
T5 sequence (whole entry): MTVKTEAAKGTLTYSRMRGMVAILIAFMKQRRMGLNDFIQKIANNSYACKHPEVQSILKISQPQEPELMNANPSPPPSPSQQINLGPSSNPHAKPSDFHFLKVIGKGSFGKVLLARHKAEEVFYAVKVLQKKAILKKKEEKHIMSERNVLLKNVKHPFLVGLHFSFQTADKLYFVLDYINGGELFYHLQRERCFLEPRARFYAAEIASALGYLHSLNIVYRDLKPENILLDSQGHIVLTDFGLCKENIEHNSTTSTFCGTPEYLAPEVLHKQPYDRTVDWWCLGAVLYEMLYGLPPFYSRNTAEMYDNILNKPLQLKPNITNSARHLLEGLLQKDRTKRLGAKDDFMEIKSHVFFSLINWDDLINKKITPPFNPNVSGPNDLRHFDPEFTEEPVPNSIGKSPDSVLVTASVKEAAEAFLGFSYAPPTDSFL
Nature of the assay: Inhibition of human SGK1 at 500 nM by HotSpot assay relative to control.

This is an account of results in ChEMBL document CHEMBL5653615 (J Biol Chem, 2013).

One may read the inhibition as the relative decrease from the control value, in per cent.

For `Oc1n[nH]c2nnc(-c3c(-c4ccccc4)nn4ccccc34)cc12`, the inhibition was 1.33% in assay [1]; 4.28% in assay [2]; 2.04% in assay [3]; -6.46% in assay [4]; 1.12% in assay [5]; -4.65% in assay [6].
For the molecule `Nc1n[nH]c2nnc(-c3c(-c4ccccc4)nn4ccccc34)cc12`, the inhibition is 1.7% in assay [1]; -1.03% in assay [2]; 3.59% in assay [3]; 12.7% in assay [4]; 41.1% in assay [5]; 0.11% in assay [6].
